Reference: article PMC5766581, “NF-κB inducing kinase is a therapeutic target for systemic lupus erythematosus” (Nature Communications, 2018)

Legend:
[1] = target: T1, mouse NIK (Mus musculus, UniProt Q9WUL6); assay: NIK Transcreener ADP enzymatic assay; assay type: biochemical; details: mouse NIK enzymatic activity; mean ± SD
T1 construct: mouse NIK kinase domain (a.a. 329–675) (1 nM); made in house; host or cells: baculovirus-infected insect cells

[2] = system: nuclear p52 (non-canonical NF-κB signaling); assay: High content nuclear p52 imaging, anti-LTβR-stimulated HeLa cells; assay type: cell-based, human; details: anti-LTβR induced, mean ± SD
Description: (§1) The HeLa cell line was used to define the cellular selectivity of NIK inhibitors toward inhibition of classical vs. non-classical NF-κB signaling using high content cellular imaging assays. For the nuclear translocation assay p52 (non-canonical NF-κB signaling), HeLa cells were treated with different concentrations of compounds previously diluted in DMSO (final [DMSO] = 0.2% in all wells) in DMEM medium (10% FBS, 2 mM Glutamine) and then stimulated with 300 ng/mL of an anti-lymphotoxin beta receptor antibody for 4.5 h. In the REL-A nuclear translocation assay, HeLa cells were incubated with compounds for 4 h 50 min before stimulating them with 2 ng/mL TNF (R&D Systems) for 10 min. Cells were fixed with 4% paraformaldehyde, permeabilized by adding 0.1% Triton X-100 in phosphate buffered saline, and then are incubated with either 2 μg/mL anti-p52 antibody or 400 ng/mL anti-REL-A (p65) antibody. Finally, the cells are incubated with an Alexa488-labeled secondary antibody (Invitrogen) and DRAQ5 DNA stain (Biostatus). Imaging was carried out using an Opera reader (Perkin Elmer) and data were analyzed with Acapella software (Perkin Elmer). The p52 or REL-A translocation into the nucleus is quantified by the ratio of the nuclear to cytoplasmic signal intensity.

[3] = system: nuclear RelA (canonical NF-κB signaling); assay: High content nuclear RelA imaging, TNF-stimulated HeLa cells; assay type: cell-based, human; details: TNF induced
Description: as §1

[4] = system: mouse B cells; assay: BAFF B cell survival assay (Cell Titer Glo); assay type: cell-based; details: BAFF induced; mean ± SD
[5] = system: human B cells; assay: BAFF B cell survival assay (Cell Titer Glo); assay type: cell-based; details: BAFF induced; mean ± SD
Description: Human B cells were isolated using Miltenyi Human B cell isolation kit following ficoll separation of buffy coats. […] Mouse B cells were isolated from mouse spleen using Miltenyi mouse B cell isolation kit II. Cells were plated in Co-star 96-well plates at either 50,000 cells/well for the survival assays or at 150,000 cells/well for the proliferation assays. Compounds diluted in DMSO (final DMSO assay concentration = 0.1%) were added to the cells. The cells were incubated with compound for one hour at 37 °C. Stimulus was then added to the plates and survival or proliferation was measured after four days. For the proliferation assays, cells were treated with either Anti-IgM (20 μg/mL) or rhCD40L (10 μg/mL; R&D) or anti-mouse CD40 (100 ng/mL). Proliferation was measured using thymidine incorporation on day four. For the BAFF survival assay, cells were treated with human or mouse rBAFF (R&D Systems) at 10 ng/ml followed by Cell Titer Glo (Promega) to measure survival on day four.

[6] = system: rhCD40L induced ICOSL expression on human B cells; assay: ICOSL expression on human B cell assay; assay type: cell-based; details: ICOSL MFI by FACS, mean ± SD, read-out: CD40-induced ICOSL IC50
Description: Human B cells were isolated from whole blood. B cells were enriched by RosetteSep protocol (Stem Cell Technologies), and then isolated using Human B cell isolation kit II (Miltenyi). […] Mean fluorescent intensity (MFI) of CD40L and BAFF induced ICOSL expression was measured by flow cytometry on cells stained with anti-CD20 and anti-ICOSL, using a FACS Calibur instrument (BD). Plots and IC50 measurements were generated using GraphPad Prism Software.

[7] = system: IL-12p40 production from human monocyte derived DC; assay: CD40L induced IL-12p40 production from human DCs; assay type: cell-based; details: human monocyte derived DC, rhCD40L; mean ± SD; read-out: CD40-induced IL-12 p40 IC50
Description: Human monocytes were enriched from whole blood (Monocyte enrichment RosetteSep, Stem Cell) followed by isolation using Monocyte Isolation Kit II (Miltenyi). Isolated monocytes were cultured (RPMI-10% FBS, penicillin/streptomycin, glutamine) with rhGM-CSF (100 ng/mL) and rhIL-4 (6.5 ng/mL) (R&D Systems) for 5 days with GM-CSF replacement on day 3. On Day 5 immature monocyte derived DCs were monitored for differentiation by flow cytometry ([…], CD83^low CD86^low CD209^+/hi). […] After 24 h plates were centrifuged and supernatants were removed for IL-12p40 cytokine measurement by ELISA (BD Biosciences). Plots and IC50 measurements were generated using GraphPad Prism software.

[8] = system: human B cells; assay: Human B cell anti-IgM proliferation assay; assay type: cell-based; details: thymidine incorporation, day four
[9] = system: human B cells; assay: Human B cell rhCD40L proliferation assay; assay type: cell-based; details: thymidine incorporation, day four; read-out: Human B cell anti-CD40 proliferation IC50
[10] = system: Balb/c mice; assay: TNP-OVA immunization model; assay type: in vivo, mouse; details: 300 mg/kg P.O. BID, 10 days
Text: Four to nine 8-week-old female Balb/c mice were randomized into experimental groups upon delivery from vendor. […] Investigators were not blinded to experimental samples.

T1 sequence (Q9WUL6 329-675): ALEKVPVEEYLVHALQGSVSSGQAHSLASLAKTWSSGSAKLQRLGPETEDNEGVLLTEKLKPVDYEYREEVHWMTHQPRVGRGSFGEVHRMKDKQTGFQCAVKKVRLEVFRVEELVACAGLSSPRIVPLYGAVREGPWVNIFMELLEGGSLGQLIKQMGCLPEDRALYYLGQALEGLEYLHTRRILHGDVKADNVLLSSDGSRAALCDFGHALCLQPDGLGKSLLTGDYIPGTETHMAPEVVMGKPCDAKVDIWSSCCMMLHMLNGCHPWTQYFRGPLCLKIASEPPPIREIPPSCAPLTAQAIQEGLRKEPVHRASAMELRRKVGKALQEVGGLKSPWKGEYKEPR

- Ki [1]: 0.84 nM
- IC50 [2]: 43 nM
- IC50 [3]: > 2000 nM
- IC50 [6]: 58.7 nM
- IC50 [7]: 60.7 nM
SMILES: CN1CC[C@@](O)(C#Cc2cccc(-n3nc(C(N)=O)c4ccccc43)c2)C1=O [NIK SMI2]
- IC50 [4]: 1750 nM
- IC50 [5]: 360 nM
- IC50 [8]: > 10000 nM
- IC50 [9]: > 10000 nM
- germinal center B cell development and antigen-specific IgG1 production [10]: reduced
